Entries after “also recorded” stand apart in the source; their conditions may differ.
What was measured:
[1] = test system: self-complementary duplex 12-mer d(AATTACGTAATT) (SEQ ID NO: 1); experiment: DNA alkylation detected by non-denaturing DNA-gel electrophoresis with in-gel fluorescence; format: biochemical; settings: for alkylation / modification of the DNA duplex: 12-mer duplex with single central G residue, gel in-gel fluorescence and LC-MS; for fluorescent complex with the oligonucleotide detected: two-hour reaction at 23 °C
From the text: Two independent techniques were used to evaluate the reactivity of the synthesized trioxacarcins towards d(AATTACGTAATT) (SEQ ID NO: 1). The first technique involved detecting alkylated DNA oligonucleotides by in-gel fluorescence with non-denaturing DNA-gel electrophoresis. The second technique involved detecting alkylated DNA oligonucleotides using a liquid chromatography-mass spectrometry method.
We began the DNA-alkylation studies by evaluating the activity of DC-45-A2 towards the self-complementary 12-mer d(AATTACGTAATT) (SEQ ID NO: 1) in pH 7 phosphate buffer at different concentrations (FIG. 10). The concentration of the oligonucleotide was held constant at 100 μM while DC-45-A2 was used at five different concentrations ranging from 1 μM to 1000 μM (lanes 4-8) in five separate reactions. At the highest concentrations of DC-45-A2 (500 μM and 1000 μM), a second and distinct fluorescent complex was observed by in-gel fluorescence. […] Chem. 390, 1139 (2008). After incubation for 3 h at 23° C., aliquots of the reactions mixtures were loaded onto a 20% crosslinked polyacrylamide gel. After electrolution, the gels were visualized using an alpha imager, first by irradiating the gel at 302 nm to image fluorescent species in the gel (in-gel fluorescence) and then by treating the gel with ethidium bromide and again irradiating at 302 nm to image fluorescent species in the treated gel. The fluorescence quantum efficiency of an ethidium bromide molecule increases 20- to 25-fold upon intercalation into duplex DNA: J.-B. Le Pecq, C. Paoletti, Anal. Biochem. 17, 100 (1966).
Next, we compared the reactivity of DC-45-A2 to both iso-DC-45-A2 and dideoxy-DC-45-A2 towards the same oligonucleotide in three separate alkylation experiments (FIG. 11).
Having noted the apparent differential reactivity between DC-45-A2 and dideoxy-DC-45-A2, we performed an experiment to visualize the formation of the fluorescent complex at different reaction times (FIG. 12). The reaction of the oligonucleotide with DC-45-A2 reached an approximate maximum of fluorescence intensity between 5 and 10 h, while the reaction of the oligonucleotide with dideoxy-DC-45-A2 reached a maximum fluorescence intensity between 1 and 4 h.
Seven vials (designated vials 1 and vials 3-8) were loaded with alkylation buffer (86.7 μL, see above for preparation). A solution of duplex oligonucleotide d(AATTACGTAATT) (SEQ ID NO: 1) (1.07 mM [concentration of the DNA duplex] in alkylation buffer [see above for preparation], 9.34 μL, 10 nmol, 1 equiv) was added to vials 3-8. Dimethylsulfoxide was added in the following amounts to vials 3-7 (vial 3, 4.00 μL; vial 4, 3.80 μL; vial 5, 3.00 μL; vials 6-7, 2.00 μL). Solutions of DC-45-A2 in dimethylsulfoxide was added to vial 1 and vials 4-8 at the following concentrations and amounts (vial 1, 25 mM solution of DC-45-A2, 4.00 μL; vial 4, 5 mM solution of DC-45-A2, 0.20 μL; vial 5, 5 mM solution of DC-45-A2, 1.00 μL; vial 6, 5 mM solution of D-45-A2, 2.00 μL; vial 7, 25 mM solution of DC-45-A2, 2.00 μL; vial 8, 25 mM solution of DC-45-A2, 4.00 μL). The samples were vortexed, then rotated end-over-end at 23° C. After 2 h, four vials (designated vials 9-12) were prepared containing the following (vial 9, an aliquot of the solution from vial 3 [18.0 μL], DNase I enzyme solution [2.00 μL, Invitrogen 18047-019]; vial 10, an aliquot of the solution from vial 3 [20.0 μL]; vial 11, an aliquot of the solution from vial 5 [18.0 μL], DNase I enzyme [2.00 μL, Invitrogen 18047-019]; vial 12, an aliquot of the solution from vial 5 [20.0 μL]. Vials 9 and 11 were rotated end-over-end at 23° C. for 1 h. Vials 10 and 12 were heated at 95° C. for 15 min. To a final vial (designated vial 2) was added a 10-bp DNA ladder (4 μL, Invitrogen 10821-015) and alkylation buffer (16.0 μL). Vials 2 and 9-12 were diluted with loading buffer (5.00 μL, see above for preparation). A 20-μL aliquot was removed from vials 1 and 3-8. […]

[2] = test system: HeLa S3 cells; experiment: Cell proliferation assay (MTS/PMS), HeLa S3 cells; format: cell-based; settings: HeLa cell line; 72 h at 37 °C
Experimental: (§1) Cell Culture. H460 cells and HeLa S3 cells were purchased from American Type Culture Collection (ATCC). H460 cells were maintained in RPMI-1640 medium supplemented with 10% fetal bovine serum (FBS). HeLa S3 cells were maintained in Dulbecco's Modified Eagle's Medium supplemented with 10% fetal bovine serum (FBS).
(§2) Cell Proliferation Assay. A solution of H460 or HeLa S3 cells (3000 cells/well) in growth medium was seeded onto a 96-well plate. The 96-well plate was incubated for 24 h at 37° C. Stock solutions of each compound were serially diluted and administrated to cells to achieve final concentrations of 38 nM to 83 μM (DC-45-A2 and iso-DC-45-A2) or 3.4 nM to 7.5 μM (dideoxy-DC-45-A2). After incubating at 37° C. for 72 h, 20 μL of MTS/PMS solution (Promega CellTiter 96® Aqueous Non-Radioactive Cell Proliferation Assay) was added to each well. After incubating at 37° C. for 3.5 h, the absorbance at 490 nm was recorded using a microplate reader (SpectraMax PLUS384) as a measure of viable cells. Percent growth inhibition was calculated for each well based upon the following formula: percent growth inhibition=100×(C−T)/C, where T is the absorbance of the well containing the test compound minus the average absorbance of wells containing media alone, and C is the average absorbance of wells containing vehicle control-treated cells minus the average absorbance of wells containing media alone. […]

[3] = test system: H460 cells; experiment: Cell proliferation assay (MTS/PMS), H460 cells; format: cell-based; settings: H460 cell line (printed H4609 in b565); 72 h at 37 °C
Experimental: as §1, §2

[4] = Storage and solution stability
[5] = Water solubility; settings: attenuated by saturation with sodium chloride

## COc1c2c(c(O)c3c4c(c(C)cc13)[C@H]1O[C@]3(C(OC)OC)O[C@H]1[C@](O)(O4)[C@@]31CO1)C(=O)[C@@H](O)C[C@@H]2O [iso-DC-45-A2, 11,12,13,15-tetraepi-DC-45-A2]
[1]; 23 °C
  alkylation / modification of the DNA duplex: unreactive
[1]; 23 °C, listed as Iso-DC-45-A2
  alkylation / modification of the DNA duplex: not observed to modify
[2]
  IC50, growth inhibition: inactive
[3]
  IC50, growth inhibition: inactive

## DC-45-A2
[4]; in solution at 23 °C
  stability in solution: slow decomposition over hours
[4]; stored neat at −25 °C with exclusion of light
  stability on storage: stable
[1]; 23 °C
  alkylation / modification of the DNA duplex: found to modify
  rate of alkylation of the DNA duplex: half life of hours
[1]; 23 °C, listed as 1
  alkylation / modification of the DNA duplex: readily alkylated
[1]; compound and DNA 100 μM
  fluorescent complex with the oligonucleotide detected: clearly detected
[1]; reaction mixture heated at 95 °C for 15 min
  stability of the fluorescent DNA complex to heating: destroyed
[2]
  IC50, growth inhibition: micromolar; also recorded: submicromolar
[5]
  water solubility: appreciable water solubility
[3]
  IC50, growth inhibition: micromolar; also recorded: submicromolar

## Dideoxy-DC-45-A2
[1]; 23 °C
  alkylation / modification of the DNA duplex: found to modify
  rate of alkylation of the DNA duplex: within minutes
[1]; 23 °C, compared with DC-45-A2
  efficiency of alkylation of the DNA duplex: apparently greater efficiency
[1]; compound and DNA 100 μM, 2 h at 23 °C, compared with DC-45-A2
  signal intensity of the fluorescent complex: more intense signal
[1]; compound and DNA 100 μM
  fluorescent complex with the oligonucleotide detected: clearly detected
